Laboratory results from PubChem BioAssay (NCI).
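Cultured in 96-well plates, cells were exposed to test compound for 48 hours across five concentrations. Here, GI50 denotes the concentration required for 50% inhibition of growth. The concentration for full growth arrest is given as TGI.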

Columns and labels:
Experiment in all cases: inhibition of tumour cell growth, NCI panel, 48 h
[1] = tested on: UACC-257 melanoma
[2] = tested on: LOX IMVI melanoma
[3] = tested on: IGROV1 ovarian
[4] = tested on: OVCAR-5 ovarian
[5] = tested on: OVCAR-4 ovarian
[6] = tested on: KM20L2 colon
[7] = tested on: XF 498 CNS
[8] = tested on: K-562 leukemia
[9] = tested on: HOP-18 NSCLC
[10] = tested on: U251 CNS
[11] = tested on: DMS 114 small cell lung
[12] = tested on: DLD-1 colon
[13] = tested on: A498 renal
[14] = tested on: CAKI-1 renal
[15] = tested on: NCI-H226 lung
[16] = tested on: NCI-H522 lung
[17] = tested on: HL-60(TB) leukemia
[18] = tested on: SK-MEL-5 melanoma
[19] = tested on: SK-OV-3 ovarian
[20] = tested on: RPMI-8226 leukemia
[21] = tested on: SK-MEL-28 melanoma
[22] = tested on: M14 melanoma
[23] = tested on: MALME-3M melanoma
[24] = tested on: COLO 205 colon
[25] = tested on: NCI-H23 lung
[26] = tested on: SNB-75 CNS
[27] = tested on: NCI-H460 lung
[28] = tested on: SK-MEL-2 melanoma
[29] = tested on: LXFL 529 NSCLC
[30] = tested on: DMS 273 small cell lung
[31] = tested on: UACC-62 melanoma
[32] = tested on: CCRF-CEM leukemia
[33] = tested on: TK-10 renal
[34] = tested on: SN12C renal
[35] = tested on: SNB-19 CNS
[36] = tested on: SF-539 CNS
[37] = tested on: HCT-116 colon
[38] = tested on: SW-620 colon
[39] = tested on: A549 NSCLC
[40] = tested on: 786-0 renal
[41] = tested on: OVCAR-8 ovarian
[42] = tested on: SF-268 CNS
[43] = tested on: SR leukemia
[44] = tested on: HT29 colon
[45] = tested on: KM12 colon
[46] = tested on: UO-31 renal
[47] = tested on: ACHN renal
[48] = tested on: MOLT-4 leukemia
[49] = tested on: OVCAR-3 ovarian
[50] = tested on: SF-295 CNS
[51] = tested on: RXF 393 renal
[52] = tested on: HOP-92 NSCLC

With `CC(=O)[CH-]C(C)=O.CC(=O)[CH-]C(C)=O.CC(=O)[CH-]C(C)=O.[In+3]` the GI50 [1] was over 100 µM, the TGI [1] was over 100 µM and the GI50 [2] was over 100 µM. It also gave a TGI [2] of over 100 µM, a GI50 [3] of over 100 µM and a TGI [3] of over 100 µM. The GI50 [4] was over 100 µM, the TGI [4] was over 100 µM and the GI50 [5] was over 100 µM. For the same molecule, the TGI [5] was over 100 µM, the GI50 [6] was over 100 µM and the TGI [6] was over 100 µM. It also gave a GI50 [7] of over 100 µM, a TGI [7] of over 100 µM and a GI50 [8] of over 100 µM. The TGI [8] was over 100 µM, the GI50 [9] was 52.4 µM and the TGI [9] was over 100 µM. It also gave a GI50 [10] of over 100 µM, a TGI [10] of over 100 µM and a GI50 [11] of over 100 µM. For the same molecule, the TGI [11] was over 100 µM, the GI50 [12] was over 100 µM and the TGI [12] was over 100 µM. For the same molecule, the GI50 [13] was over 100 µM, the TGI [13] was over 100 µM and the GI50 [14] was over 100 µM. It also gave a TGI [14] of over 100 µM, a GI50 [15] of over 100 µM and a TGI [15] of over 100 µM. For the same molecule, the GI50 [16] was over 100 µM, the TGI [16] was over 100 µM and the GI50 [17] was over 100 µM. The TGI [17] was over 100 µM, the GI50 [18] was over 100 µM and the TGI [18] was over 100 µM. For the same molecule, the GI50 [19] was over 100 µM, the TGI [19] was over 100 µM and the GI50 [20] was over 100 µM. It also gave a TGI [20] of over 100 µM, a GI50 [21] of over 100 µM and a TGI [21] of over 100 µM. The GI50 [22] was over 100 µM, the TGI [22] was over 100 µM and the GI50 [23] was over 100 µM. For the same molecule, the TGI [23] was over 100 µM, the GI50 [24] was over 100 µM and the TGI [24] was over 100 µM. It also gave a GI50 [25] of over 100 µM, a TGI [25] of over 100 µM and a GI50 [26] of over 100 µM. It also gave a TGI [26] of over 100 µM, a GI50 [27] of over 100 µM and a TGI [27] of over 100 µM. It also gave a GI50 [28] of over 100 µM, a TGI [28] of over 100 µM and a GI50 [29] of over 100 µM. For the same molecule, the TGI [29] was over 100 µM, the GI50 [30] was over 100 µM and the TGI [30] was over 100 µM. The GI50 [31] was over 100 µM, the TGI [31] was over 100 µM and the GI50 [32] was over 100 µM. For the same molecule, the TGI [32] was over 100 µM, the GI50 [33] was over 100 µM and the TGI [33] was over 100 µM. It also gave a GI50 [34] of over 100 µM, a TGI [34] of over 100 µM and a GI50 [35] of over 100 µM. For the same molecule, the TGI [35] was over 100 µM, the GI50 [36] was over 100 µM and the TGI [36] was over 100 µM. The GI50 [37] was over 100 µM, the TGI [37] was over 100 µM and the GI50 [38] was over 100 µM. The TGI [38] was over 100 µM, the GI50 [39] was over 100 µM and the TGI [39] was over 100 µM. For the same molecule, the GI50 [40] was over 100 µM, the TGI [40] was over 100 µM and the GI50 [41] was over 100 µM. It also gave a TGI [41] of over 100 µM, a GI50 [42] of over 100 µM and a TGI [42] of over 100 µM. The GI50 [43] was over 100 µM, the TGI [43] was over 100 µM and the GI50 [44] was over 100 µM. For the same molecule, the TGI [44] was over 100 µM, the GI50 [45] was over 100 µM and the TGI [45] was over 100 µM. The GI50 [46] was over 100 µM, the TGI [46] was over 100 µM and the GI50 [47] was over 100 µM. It also gave a TGI [47] of over 100 µM, a GI50 [48] of over 100 µM and a TGI [48] of over 100 µM. It also gave a GI50 [49] of over 100 µM, a TGI [49] of over 100 µM and a GI50 [50] of over 100 µM. It also gave a TGI [50] of over 100 µM, a GI50 [51] of over 100 µM and a TGI [51] of over 100 µM. It also gave a GI50 [52] of over 100 µM and a TGI [52] of over 100 µM.
